Results reported in patent US20240122929A1, “BODY TEMPERATURE LOWERING AGENT, BODY TEMPERATURE ELEVATION SUPPRESSOR, FOOD COMPOSITION FOR LOWERING BODY TEMPERATURE,AND FOOD COMPOSITION FOR SUPPRESSING BODY TEMPERATURE ELEVATION” (University of Tsukuba, priority 2021, published 2024).

Legend:
male Wistar rat [1] = assay: Effect of orotic acid on core body temperature at rest (telemetry, breath gas analysis, spontaneous activity); type: in vivo
Text: The body temperature lowering action of the body temperature lowering agent according to the embodiment of the present invention can be measured by a method for measuring the core body temperature at rest. The core body temperature at rest can be measured in accordance with a known method, for example, the method described in an article of Takahashi et al. (Nature 583: 109-114, 2020) and the like. Specifically, the measurement can be performed in the following manner. The core body temperature at rest is measured using a TRM54P Rat Telemetry System (available from KAHA Sciences) and SmartPad (TR181: available from KAHA Sciences) and quantified. The main body of TRM54P Rat Telemetry System is indwelled in the abdominal cavity of a test animal for measurement. All experiments are performed in the light phase, and on the day of the experiments, a rat is fasted 2 hours before start of the test to eliminate the effect of food-induced heat production. After the core body temperature at rest is measured for 20 minutes, a drug (orotic acids) or vehicle is intraperitoneally administered, and the core body temperature is measured for 120 minutes. In a case where the core body temperature at rest is lowered as compared with a case where orotic acids are not administered, it can be determined that the orotic acids have a body temperature lowering action. A 10-week-old male Wistar rat was used, and a one-week preliminary breeding period was provided before the day of an experiment. During the experiment, room temperature was maintained at 22±2° C. After the preliminary breeding, a telemetry (TRM54P, available from KAHA Sciences) for measuring the body temperature was indwelled in the abdominal cavity, and a recovery period and an acclimation period were provided for one week each. 300 mg/kg orotic acid, 30 mg/kg orotic acid, or a vehicle (1% carboxymethyl cellulose) was intraperitoneally administered to examine the effect on the core body temperature at rest. In addition to the core body temperature and a heart rate, an oxygen/carbon dioxide intake was measured using a breath gas analyzer (trade name: Oxymax, available from Columbus Instruments) to calculate a respiratory exchange ratio (also referred to as RER) and an amount of heat production. In addition, the amount of spontaneous activity was measured using an infrared beam sensor (trade name: beam sensor type spontaneous activity amount measuring device, available from Panlab). Note that in the experiment, the rat was placed under fasting for 2 hours before the start of the experiment, and the core body temperature at rest was measured for 20 minutes. Thereafter, the orotic acid or vehicle was intraperitoneally administered, and the measurement was performed until 2 hours later. The orotic acid was used in a free form.

male Wistar rat [2] = assay: Effect of orotic acid on core body temperature during treadmill exercise; type: in vivo; conditions: treadmill 20 m/min for 30 minutes
Text: The body temperature elevation suppressing action of the body temperature elevation suppressor according to the embodiment of the present invention can be measured by a method for measuring the core body temperature during exercise. The core body temperature during exercise can be measured in accordance with a known method, for example, a method described in the article by Takahashi et al. (Nature 583: 109-114, 2020) and the like. Specifically, the measurement can be performed in the following manner. A rat is placed in a treadmill metabolism chamber for small animals having an inclination of 10°, and after measuring the core body temperature at rest for 20 minutes, a single dose of a drug (orotic acids) is administered intraperitoneally. After the administration, the rat is left in a rest state for 15 minutes, and then exercise is started. The exercise is started at a running speed of 5 m/min, the running speed is increased to 20 m/min over 5 minutes, and the core body temperature is measured in the same manner as the method for measuring the core body temperature at rest. In a case where the core body temperature elevation during exercise is suppressed as compared with a case where the orotic acids are not administered, it can be determined that the orotic acids have the body temperature elevation suppressing action. A 10-week-old male Wistar rat was used, and a one-week preliminary breeding period was provided before the day of an experiment. During the experiment, room temperature was maintained at 22±2° C. After the preliminary breeding, a telemetry (trade name: TRM54P, available from KAHA Sciences) for measuring the body temperature was indwelled in the abdominal cavity, and a running test was performed after a recovery period of one week. Note that in the experiment, after 300 mg/kg orotic acid or a vehicle (physiological saline) was intraperitoneally administered in a rest state, treadmill exercise (20 m/min) was performed for 30 minutes, and the measurement was performed until 1 hour after the end of the exercise. The measurement items were core body temperature, a blood pressure, a heart rate, and breath gas metabolism. From the obtained oxygen/carbon dioxide intake, exercise economy was calculated. The orotic acid was used in a free form.

rat = conditions: orotic acid administered to a rat, Non-Patent Document 2; cited from earlier work

## O=C(O)c1cc(=O)[nH]c(=O)[nH]1 [orotic acid]
Male Wistar rat [1]; 30 mg/kg and 300 mg/kg intraperitoneal vs vehicle, infrared beam sensor, FIG. 4
  amount of spontaneous activity at rest: no difference between the groups
Male Wistar rat [1]; 30 mg/kg and 300 mg/kg intraperitoneal, FIG. 1
  core body temperature at rest, dose dependence: decreased in a concentration dependent manner
Male Wistar rat [1]; 30 mg/kg and 300 mg/kg intraperitoneal, FIG. 2
  heart rate at rest: did not fluctuate
Male Wistar rat [1]; 300 mg/kg intraperitoneal, vs vehicle (1% carboxymethyl cellulose), measured until 2 hours after administration, FIG. 1
  core body temperature at rest: significantly decreased
Male Wistar rat [1]; 300 mg/kg intraperitoneal, vs vehicle, breath gas analyzer, FIG. 3
  amount of heat production at rest: significantly decreased
Male Wistar rat [1]; orotic acid administered groups (30 and 300 mg/kg intraperitoneal), data not shown
  contraction phase, diastole phase and mean blood pressure at rest: significantly increased
Male Wistar rat [2]; 300 mg/kg intraperitoneal vs vehicle (physiological saline), FIG. 8
  exercise economy: increased
Male Wistar rat [2]; 300 mg/kg intraperitoneal vs vehicle, FIG. 5
  excessive core body temperature elevation during exercise: suppressed
Male Wistar rat [2]; 300 mg/kg intraperitoneal vs vehicle, FIG. 6
  heart rate during exercise: significantly decreased
Male Wistar rat [2]; 300 mg/kg intraperitoneal vs vehicle, FIG. 7
  amount of heat production during exercise: lowered
rat
  body temperature: not lowered
